This note sets out measurements from publication PMC8777764, “Design, Synthesis, Biological Evaluation, and Molecular Modeling of 2-Difluoromethylbenzimidazole Derivatives as Potential PI3Kα Inhibitors” (Molecules, 2022).

This assay has as its target T1, PI3Kα (Homo sapiens, UniProt P42336).
T1 construct: gene PIK3CA
Description: Kinase-Glo Plus luminescence kinase assay, […] ATP. Type of assay: biochemical.

T1 sequence (P42336 whole entry): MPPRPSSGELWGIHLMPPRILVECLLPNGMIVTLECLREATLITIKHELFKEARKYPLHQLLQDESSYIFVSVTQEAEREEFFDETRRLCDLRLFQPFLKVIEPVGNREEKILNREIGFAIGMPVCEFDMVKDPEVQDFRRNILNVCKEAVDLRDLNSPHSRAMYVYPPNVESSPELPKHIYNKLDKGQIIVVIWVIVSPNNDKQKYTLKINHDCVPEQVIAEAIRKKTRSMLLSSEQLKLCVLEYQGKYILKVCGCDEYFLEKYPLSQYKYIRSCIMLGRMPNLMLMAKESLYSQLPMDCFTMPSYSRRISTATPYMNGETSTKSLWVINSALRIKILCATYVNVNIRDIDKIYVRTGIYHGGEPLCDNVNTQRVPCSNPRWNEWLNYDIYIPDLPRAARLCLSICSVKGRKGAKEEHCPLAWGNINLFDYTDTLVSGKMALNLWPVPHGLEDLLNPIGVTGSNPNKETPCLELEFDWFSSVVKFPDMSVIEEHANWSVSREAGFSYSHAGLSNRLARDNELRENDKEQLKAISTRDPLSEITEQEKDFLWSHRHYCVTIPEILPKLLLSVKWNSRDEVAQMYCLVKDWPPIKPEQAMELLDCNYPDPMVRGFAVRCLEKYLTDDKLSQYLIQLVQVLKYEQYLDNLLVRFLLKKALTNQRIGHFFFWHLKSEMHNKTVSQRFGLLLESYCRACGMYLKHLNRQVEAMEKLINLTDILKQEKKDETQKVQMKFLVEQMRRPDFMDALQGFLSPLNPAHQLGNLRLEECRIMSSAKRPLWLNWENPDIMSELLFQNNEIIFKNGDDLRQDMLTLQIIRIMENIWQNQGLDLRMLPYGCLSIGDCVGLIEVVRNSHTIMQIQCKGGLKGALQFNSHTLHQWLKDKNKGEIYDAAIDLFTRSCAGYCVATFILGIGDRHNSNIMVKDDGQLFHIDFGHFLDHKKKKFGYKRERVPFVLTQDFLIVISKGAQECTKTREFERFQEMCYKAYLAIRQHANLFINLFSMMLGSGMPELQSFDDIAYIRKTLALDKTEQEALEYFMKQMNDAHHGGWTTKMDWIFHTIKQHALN

One may read the IC50 as the midpoint of a concentration-inhibition curve. For `CCOc1cccc2c1nc(C(F)(F)F)n2-c1nc(N2CCOCC2)nc(N(C)C2CCN(S(C)(=O)=O)CC2)n1` [compound 87, 4-(4-Ethoxy-2-(trifluoromethyl)-1H-benzo[d]imidazol-1-yl)-N-methyl-N-(1-(methylsulfonyl)piperidin-4-yl)-6-morpholino-1,3,5-triazin-2-amine], the IC50 was determined as 33.6 ± 2.7 nM.

For `COc1cccc2c1nc(C(F)(F)F)n2-c1nc(N2CCOCC2)nc(N(C)C2CCN(S(C)(=O)=O)CC2)n1` [compound 86, 4-(4-Methoxy-2-(trifluoromethyl)-1H-benzo[d]imidazol-1-yl)-N-methyl-N-(1-(methylsulfonyl)piperidin-4-yl)-6-morpholino-1,3,5-triazin-2-amine], the IC50 was 22.8 ± 0.4 nM.
